Source: patent US8853258B2, “C-linked hydroxamic acid derivatives useful as antibacterial agents” (Pfizer Inc., priority 2009, dated 2014)
Values after ≈ are worked out from the molar mass of the structure shown. Where two headings read alike, the source gives them in different places.

Legend:
Format in all cases: cell-based
[1] = tested on: Escherichia coli EC-1: VOGEL, mouse virulent; experiment: MIC determination (CLSI), EC-1
In short: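 E. coli Vogel, a mouse-virulent strain (EC-1), was tested. MICs were set by dilution susceptibility testing per CLSI standards M7-A7/M100-S18.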

[2] = tested on: Klebsiella pneumoniae: Ciprofloxacin-resistant isolate, ESBL, clinical isolate (KP-3700); experiment: MIC determination (CLSI), KP-3700
In short: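 Strain KP-3700, a clinical isolate producing extended-spectrum β-lactamases and resistant to ciprofloxacin, was tested. Minimum inhibitory concentrations determined via CLSI dilution methodology (M7-A7; M100-S18).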

[3] = tested on: Pseudomonas aeruginosa UI-18: Wild-type (PA-7); experiment: MIC determination (CLSI), PA-7
In short: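 Wild-type P. aeruginosa UI-18 tested for minimum inhibitory concentration. Broth/agar dilution following CLSI standards (M7-A7, M100-S18).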

[4] = tested on: Acinetobacter baumanii/haemolyticus: Multidrug-resistant clinical isolate (AB-3167); experiment: MIC determination (CLSI), AB-3167
In short: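 Multidrug-resistant clinical isolate AB-3167 (A. baumannii/haemolyticus) tested for minimum inhibitory concentration following CLSI dilution susceptibility standards M7-A7 and M100-S18.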

[5] = Escherichia coli EC-1 VOGEL, mouse virulent
[6] = Pseudomonas aeruginosa UI-18 wild-type PA-7
[7] = Acinetobacter baumanii/haemolyticus multidrug-resistant clinical isolate AB-3167
[8] = Pseudomonas aeruginosa UI-18 (PA-7)
[9] = Acinetobacter baumanii/haemolyticus AB-3167

| SMILES | EC-1 MIC [1, 5] | KP-3700 MIC [2] | PA-7 MIC [3, 6] | AB-3167 MIC [4, 7] | KP-3700 MIC ([2]; Klebsiella pneumoniae ciprofloxacin-resistant ESBL clinical isolate KP-3700) | EC-1 MIC ([1]; Escherichia coli EC-1) | PA-7 MIC [3, 8] | AB-3167 MIC [4, 9] | MIC ([1]; Escherichia coli, read-out: EC-1 MIC) | MIC ([3]; Pseudomonas aeruginosa, Table 3, read-out: PA-7 MIC) | MIC ([4]; Acinetobacter baumannii, Table 3, read-out: AB-3167 MIC) |
| --- | --- | --- | --- | --- | --- | --- | --- | --- | --- | --- | --- |
| CC(CCc1ccc(-c2ccc(C#N)c(C#N)c2)cc1)(C(=O)NO)S(C)(=O)=O (centres unmarked) [Example 125] | 8 µg/mL | 32 µg/mL | 4 µg/mL | ≧64 mg/L |  |  |  |  |  |  |  |
| CC(CCc1ccc(-c2ccc(C#N)cn2)cc1)(C(=O)NO)S(C)(=O)=O (centres unmarked) [Example 129] | 16 µg/mL | ≧64 mg/L | 4 µg/mL | ≧64 mg/L |  |  |  |  |  |  |  |
| CC(CCc1ccc(-c2cnc(C#N)cn2)cc1)(C(=O)NO)S(C)(=O)=O (centres unmarked) [Example 130] | 16 µg/mL | ≧64 mg/L | 16 µg/mL | ≧64 mg/L |  |  |  |  |  |  |  |
| Cc1nc(-c2ccc(CCC(C)(C(=O)NO)S(C)(=O)=O)cc2)ccc1C#N (centres unmarked) [Example 131] | 4 µg/mL | 16 µg/mL | 4 µg/mL | ≧64 mg/L |  |  |  |  |  |  |  |
| COc1cccc(-c2ccc(CCC(C)(C(=O)NO)S(C)(=O)=O)cn2)c1F (centres unmarked) [Example 134] | 4 µg/mL | 16 µg/mL | 4 µg/mL | ≧64 mg/L |  |  |  |  |  |  |  |
| COc1ccc(CCC(C)(C(=O)NO)S(C)(=O)=O)cc1 (centres unmarked) [Example 135] | ≧64 mg/L | ≧64 mg/L | 32 µg/mL | ≧64 mg/L |  |  |  |  |  |  |  |
| Cc1cc(-c2ccc(CCC(C)(C(=O)NO)S(C)(=O)=O)cc2)ccc1O (centres unmarked) [Example 137] | 16 µg/mL | 32 µg/mL | 4 µg/mL | ≧64 mg/L |  |  |  |  |  |  |  |
| COc1cc(-c2ccc(CCC(C)(C(=O)NO)S(C)(=O)=O)cc2)ccc1O (centres unmarked) [Example 139] | 16 µg/mL | ≧64 mg/L | 16 µg/mL | ≧64 mg/L |  |  |  |  |  |  |  |
| Cc1cc(O)ccc1-c1ccc(CCC(C)(C(=O)NO)S(C)(=O)=O)cc1 (centres unmarked) [Example 140] | 32 µg/mL | ≧64 mg/L | 4 µg/mL | ≧64 mg/L |  |  |  |  |  |  |  |
| COc1cc(O)ccc1-c1ccc(CCC(C)(C(=O)NO)S(C)(=O)=O)cc1 (centres unmarked) [Example 141] | ≧64 mg/L | ≧64 mg/L | 32 µg/mL | ≧64 mg/L |  |  |  |  |  |  |  |
| CC(CCc1ccc(-c2ccc(C#N)c(O)c2)cc1)(C(=O)NO)S(C)(=O)=O (centres unmarked) [Example 142] | ≧64 mg/L | ≧64 mg/L | 32 µg/mL | ≧64 mg/L |  |  |  |  |  |  |  |
| CC(CCc1ccc(-c2ccccc2O)nc1)(C(=O)NO)S(C)(=O)=O (centres unmarked) [Example 143] | 4 µg/mL | 32 µg/mL | 4 µg/mL | ≧64 mg/L |  |  |  |  |  |  |  |
| CC(CCc1ccc(-c2ccc(OCCO)cc2F)cc1)(C(=O)NO)S(C)(=O)=O (centres unmarked) [Example 144] | 1 µg/mL | 4 µg/mL | 1 µg/mL | ≧64 mg/L |  |  |  |  |  |  |  |
| CC(CCc1ccc(-c2ccc(OCCO)c(F)c2)cc1)(C(=O)NO)S(C)(=O)=O (centres unmarked) [Example 145] | 2 µg/mL | 4 µg/mL | 1 µg/mL | ≧64 mg/L |  |  |  |  |  |  |  |
| CC(C)(O)Cc1ccc(-c2ccc(CCC(C)(C(=O)NO)S(C)(=O)=O)cc2)cc1 (centres unmarked) [Example 146] | 8 µg/mL | 32 µg/mL | 8 µg/mL | ≧64 mg/L |  |  |  |  |  |  |  |
| CC(CCc1ccc(-c2ccc(OCCO)c(F)c2F)cc1)(C(=O)NO)S(C)(=O)=O (centres unmarked) [Example 147] | 2 µg/mL | 8 µg/mL | 1 µg/mL | 32 µg/mL |  |  |  |  |  |  |  |

| SMILES | EC-1 MIC [1, 5] | KP-3700 MIC [2] | PA-7 MIC [3, 6] | AB-3167 MIC [4, 7] | KP-3700 MIC ([2]; Klebsiella pneumoniae ciprofloxacin-resistant ESBL clinical isolate KP-3700) | EC-1 MIC ([1]; Escherichia coli EC-1) | PA-7 MIC [3, 8] | AB-3167 MIC [4, 9] | MIC ([1]; Escherichia coli, read-out: EC-1 MIC) | MIC ([3]; Pseudomonas aeruginosa, Table 3, read-out: PA-7 MIC) | MIC ([4]; Acinetobacter baumannii, Table 3, read-out: AB-3167 MIC) |
| --- | --- | --- | --- | --- | --- | --- | --- | --- | --- | --- | --- |
| CC(CCc1ccc(-c2ccc(OCCO)c(C#N)c2)cc1)(C(=O)NO)S(C)(=O)=O (centres unmarked) [Example 148] | 16 µg/mL | ≧64 mg/L | 16 µg/mL | ≧64 mg/L |  |  |  |  |  |  |  |
| CC(CCc1ccc(-c2ccc(O)cc2F)cc1)(C(=O)NO)S(C)(=O)=O (centres unmarked) [Example 149] | 2 µg/mL | 8 µg/mL | 1 µg/mL | ≧64 mg/L |  |  |  |  |  |  |  |
| CC(CCc1ccc(-c2cc(F)c(OCCO)c(F)c2)cc1)(C(=O)NO)S(C)(=O)=O (centres unmarked) [Example 150] | 2 µg/mL | 8 µg/mL | 2 µg/mL | 32 µg/mL |  |  |  |  |  |  |  |
| Cc1cc(OCCO)ccc1-c1ccc(CCC(C)(C(=O)NO)S(C)(=O)=O)cc1 (centres unmarked) [Example 151] | 8 µg/mL | 32 µg/mL | 4 µg/mL | ≧64 mg/L |  |  |  |  |  |  |  |
| Cc1cc(-c2ccc(CCC(C)(C(=O)NO)S(C)(=O)=O)cc2)ccc1CCO (centres unmarked) [Example 152] | 4 µg/mL | 16 µg/mL | 2 µg/mL | ≧64 mg/L |  |  |  |  |  |  |  |
| CC(C)(O)c1ccccc1-c1ccc(CCC(C)(C(=O)NO)S(C)(=O)=O)cc1 (centres unmarked) [Example 153] | ≧64 mg/L | ≧64 mg/L | 32 µg/mL | ≧64 mg/L |  |  |  |  |  |  |  |
| CC(CCc1ccc(-c2cccc(O)c2F)cc1)(C(=O)NO)S(C)(=O)=O (centres unmarked) [Example 154] | 4 µg/mL |  | 1 µg/mL | ≧64 mg/L | 8 µg/mL |  |  |  |  |  |  |
| CC(CCc1ccc(-c2ccc(CCO)cc2F)cc1)(C(=O)NO)S(C)(=O)=O (centres unmarked) [Example 155] | 2 µg/mL | 8 µg/mL | 1 µg/mL | ≧64 mg/L |  |  |  |  |  |  |  |
| Cc1cc(CCO)ccc1-c1ccc(CCC(C)(C(=O)NO)S(C)(=O)=O)cc1 (centres unmarked) [Example 156] | 16 µg/mL | 8 µg/mL | 8 µg/mL | 16 µg/mL |  |  |  |  |  |  |  |
| CC(CCc1ccc(-c2ccc(C#N)cc2)cn1)(C(=O)NO)S(C)(=O)=O (centres unmarked) [Example 163] | 32 µg/mL | 32 µg/mL | 8 µg/mL | ≧64 mg/L |  |  |  |  |  |  |  |
| CC(CCc1ccc(-c2ccc(F)cc2)cn1)(C(=O)NO)S(C)(=O)=O (centres unmarked) [Example 164] | 32 µg/mL | 32 µg/mL | 4 µg/mL | ≧64 mg/L |  |  |  |  |  |  |  |
| C[C@@](CCc1ccc(-c2cc3ccccc3o2)cc1)(C(=O)NO)S(C)(=O)=O [Example 214] |  | 4 µg/mL |  |  |  | 0.125 µg/mL | 8 µg/mL | 8 µg/mL |  |  |  |
| CC(C)(O)c1ccc(-c2ccc(CCC(C)(C(=O)NO)S(C)(=O)=O)cc2)cc1 (centres unmarked) [Example 230] |  | 32 µg/mL |  |  |  | 8 µg/mL | 8 µg/mL | ≧64 mg/L |  |  |  |
| CC(CCc1ccc(-c2ccc(C[C@H](N)C(=O)O)cc2)cc1)(C(=O)NO)S(C)(=O)=O (some centres unmarked) [Example 231] |  | ≧64 mg/L |  |  |  | 32 µg/mL | 16 µg/mL | ≧64 mg/L |  |  |  |
| CC(CCc1ccc(-c2ccc(C[C@@H](N)C(=O)O)cc2)cc1)(C(=O)NO)S(C)(=O)=O (some centres unmarked) [Example 232] |  | ≧64 mg/L |  |  |  | ≧64 mg/L | 32 µg/mL | ≧64 mg/L |  |  |  |
| CC(CCc1ccc(OCc2ccc(C#N)cc2)cc1)(C(=O)NO)S(C)(=O)=O (centres unmarked) [Example 233, 4-{4-[(4-cyanobenzyl)oxy]phenyl}-N-hydroxy-2-methyl-2-(methylsulfonyl)butanamide] |  | 16 µg/mL |  |  |  |  |  |  | 4 µg/mL (≈ 9.94 µM) | 4 µg/mL (≈ 9.94 µM) | ≥ 64 µg/mL |
